Some results are limits rather than exact numbers.

We go through 21 compounds from ChEMBL document CHEMBL5370533 (Eur J Med Chem, 2023).

Series [1] concerns the target T1, Receptor-type tyrosine-protein kinase FLT3 (Homo sapiens, UniProt P36888).
T1 sequence (P36888 whole entry): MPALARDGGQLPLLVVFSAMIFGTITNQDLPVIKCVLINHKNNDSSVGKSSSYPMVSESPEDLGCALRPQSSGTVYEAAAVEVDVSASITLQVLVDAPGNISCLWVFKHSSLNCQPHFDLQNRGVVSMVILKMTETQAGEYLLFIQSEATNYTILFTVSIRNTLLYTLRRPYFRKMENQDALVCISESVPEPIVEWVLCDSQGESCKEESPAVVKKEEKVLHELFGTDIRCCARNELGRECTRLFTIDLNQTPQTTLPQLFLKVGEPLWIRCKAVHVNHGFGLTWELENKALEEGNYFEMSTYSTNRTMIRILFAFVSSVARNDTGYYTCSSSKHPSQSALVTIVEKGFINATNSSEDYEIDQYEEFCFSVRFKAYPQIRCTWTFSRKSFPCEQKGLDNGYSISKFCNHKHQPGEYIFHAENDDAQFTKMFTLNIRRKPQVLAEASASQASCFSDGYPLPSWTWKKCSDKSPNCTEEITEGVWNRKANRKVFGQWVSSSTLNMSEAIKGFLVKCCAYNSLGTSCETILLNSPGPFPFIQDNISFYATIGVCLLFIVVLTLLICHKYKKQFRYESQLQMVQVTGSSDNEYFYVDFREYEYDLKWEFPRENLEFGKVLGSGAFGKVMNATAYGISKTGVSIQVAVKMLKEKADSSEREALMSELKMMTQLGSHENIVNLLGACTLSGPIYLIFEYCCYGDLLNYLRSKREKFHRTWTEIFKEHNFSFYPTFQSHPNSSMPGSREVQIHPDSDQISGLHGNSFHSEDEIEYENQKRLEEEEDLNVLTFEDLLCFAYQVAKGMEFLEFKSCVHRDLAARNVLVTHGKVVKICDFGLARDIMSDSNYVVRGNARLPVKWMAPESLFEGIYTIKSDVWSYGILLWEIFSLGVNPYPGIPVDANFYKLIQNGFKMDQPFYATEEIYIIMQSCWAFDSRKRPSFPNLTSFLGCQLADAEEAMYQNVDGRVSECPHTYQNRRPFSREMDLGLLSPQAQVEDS
Briefly: Inhibition of human FLT3 using EAIYAAPFAKKK and [gamma-33P]-ATP as substrate pretreated for 20 mins followed by [gamma-33P]-ATP addition and measured after 120 mins in presence of 10 uM ATP by radiometric Hot-SpotSM Kinase assay.

The target in series [2] is T2, Cyclin-dependent kinase 2 (Homo sapiens, UniProt P24941). Briefly: Inhibition of human CDK2 pretreated for 20 mins followed by [gamma-33P]-ATP addition and measured after 120 mins in presence of 10 uM ATP by radiometric Hot-SpotSM Kinase assay.
Series [3] addresses T3, Cyclin-dependent kinase 6 (Homo sapiens, UniProt Q00534). The series can be described thus: Inhibition of human CDK6 pretreated for 20 mins followed by [gamma-33P]-ATP addition and measured after 120 mins in presence of 10 uM ATP by radiometric Hot-SpotSM Kinase assay.
For series [4], the system named is MV4-11. Briefly: Antiproliferative activity against human MV4-11 cells harboring FLT3 ITD mutant assessed as inhibition of cell growth incubated for 72 hrs by CellTiter-Glo luminescent assay. It counts as functional, cell-based. The conditions noted are these: MV4-11, 72 h. (In ATP-based viability assays light output follows the ATP content of the culture.)
A short description of series [5]: Cytotoxicity against mouse BaF3 cells assessed as inhibition of cell growth incubated for 72 hrs. It counts as toxicity, cell-based.
Series [6] deals with BaF3. Briefly: Antiproliferative activity against mouse BaF3 cells harboring FLT3 D835V mutant assessed as inhibition of cell growth incubated for 72 hrs. It counts as functional, cell-based. The conditions noted are these: BaF3, 72 h.
Series [7] has as its system U-937. Briefly: Antiproliferative activity against human U-937 cells expressing low level wild type FLT3 assessed as inhibition of cell growth. It counts as functional, cell-based.
The test system of series [8] is HL-60. Briefly: Antiproliferative activity against human HL-60 cells expressing low level wild type FLT3 assessed as inhibition of cell growth. It counts as functional, cell-based.
Series [9] can be described thus: Cytotoxicity against human PBMC cells assessed as inhibition of cell growth. It counts as toxicity, cell-based.
The subject of series [10] is K562. The series can be described thus: Antiproliferative activity against human K562 cells deficit of oncogenic FLT3 assessed as inhibition of cell growth. It counts as functional, cell-based.
Series [11] deals with MOLM-13. Briefly: Antiproliferative activity against human MOLM-13 cells harboring FLT3 ITD mutant assessed as inhibition of cell growth. It counts as functional, cell-based.
Series [12] concerns THP-1. The series can be described thus: Antiproliferative activity against human THP-1 cells expressing wild type FLT3 assessed as inhibition of cell growth. It counts as functional, cell-based.
Series [13] has as its system BaF3. The series can be described thus: cells. The conditions noted are these: Mus musculus, BaF3, 72 h. It counts as functional, cell-based.
Description: Antiproliferative activity against mouse BaF3 cells harboring FLT3 ITD mutant assessed as inhibition of cell growth incubated for 72 hrs
The test system of series [14] is BaF3. Briefly: cells. As to conditions: Mus musculus, BaF3, 72 h. It counts as functional, cell-based. The source holds these as a separate data set.
Description: Antiproliferative activity against mouse BaF3 cells harboring FLT3 ITD/D835V mutant assessed as inhibition of cell growth incubated for 72 hrs
The target of series [15] is T2, Cyclin-dependent kinase 2. The series can be described thus: Inhibition of human CDK2 assessed as enzyme activity at 0.123 uM pretreated for 20 mins followed by [gamma-33P]-ATP addition and measured after 120 mins in presence of 10 uM ATP by radiometric Hot-SpotSM Kinase assay. Also on record: scale not given: the % may be the effect or the level left. As to conditions: time 140.0 min.

Series [16] has as its target T3, Cyclin-dependent kinase 6. Briefly: Inhibition of human CDK6 assessed as enzyme activity at 0.123 uM pretreated for 20 mins followed by [gamma-33P]-ATP addition and measured after 120 mins in presence of 10 uM ATP by radiometric Hot-SpotSM Kinase assay. Also on record: scale not given: the % may be the effect or the level left. As to conditions: time 140.0 min.

The target of series [17] is Receptor-type tyrosine-protein kinase FLT3 (Homo sapiens) (UniProt P36888). The series can be described thus: Inhibition of human FLT3 assessed as enzyme activity using EAIYAAPFAKKK and [gamma-33P]-ATP as substrate at 0.123 uM pretreated for 20 mins followed by [gamma-33P]-ATP addition and measured after 120 mins in presence of 10 uM ATP by radiometric Hot-SpotSM Kinase assay. Also on record: scale not given: the % may be the effect or the level left. The conditions noted are these: time 140.0 min.

The subject of series [18] is BaF3. The series can be described thus: cells. It counts as functional, cell-based. As to conditions: Mus musculus, BaF3, 72 h. The source holds these as a separate data set.
Description: Antiproliferative activity against mouse BaF3 cells harboring FLT3 ITD/F691L mutant assessed as inhibition of cell growth incubated for 72 hrs
The subject of series [19] is BaF3. The series can be described thus: cells. It counts as functional, cell-based. As to conditions: Mus musculus, BaF3, 72 h. This is another data set of the same source.
Description: Antiproliferative activity against mouse BaF3 cells harboring FLT3 ITD/N676D mutant assessed as inhibition of cell growth incubated for 72 hrs
In series [20] the test system is MV4-11. The series can be described thus: animal or person. It counts as functional, Homo sapiens. The conditions noted are these: Mus musculus, MV4-11, 336 h, route po, time 2 weeks.
Description: Antitumor activity against human MV4-11 cells xenografted in nu/nu mouse assessed as inhibition of tumor growth at 50 mg/kg, po qd for 2 weeks by vernier caliper analysis
The nature of series [21]: Toxicity against nu/nu mouse xenografted with human MV4-11 cells assessed as decrease in body weight at 50 mg/kg, po qd for 2 weeks. As to conditions: in vivo, 336 h. It counts as organism-based. (In xenograft studies the graft and the host belong to different species.)
The nature of series [22]: Toxicity against nu/nu mouse xenografted with human MV4-11 cells assessed as animal's mortality at 50 mg/kg, po qd for 2 days. As to conditions: in vivo, 48 h, time 2 day. It counts as organism-based.

T3 sequence (Q00534 whole entry): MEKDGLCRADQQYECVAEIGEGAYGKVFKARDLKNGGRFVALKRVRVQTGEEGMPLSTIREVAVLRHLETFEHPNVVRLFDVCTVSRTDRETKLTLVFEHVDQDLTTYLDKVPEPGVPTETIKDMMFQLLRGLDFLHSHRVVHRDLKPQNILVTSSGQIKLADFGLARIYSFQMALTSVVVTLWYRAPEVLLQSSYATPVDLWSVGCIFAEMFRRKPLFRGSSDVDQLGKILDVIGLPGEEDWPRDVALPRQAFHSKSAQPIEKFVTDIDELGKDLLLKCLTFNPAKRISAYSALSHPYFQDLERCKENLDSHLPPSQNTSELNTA

As for `O=C(Nc1ccc(N2CCNCC2)cc1)c1n[nH]cc1Nc1cc(C2CC2)ncn1`, the IC50 (commonly the concentration needed to halve the response being measured) worked out at 8.42 nM in series [1], 193 nM in [2], 125 nM in series [3] and 80 nM in series [4].

As for `CO[C@@H]1[C@H](N(C)C(=O)c2ccccc2)C[C@H]2O[C@]1(C)n1c3ccccc3c3c4c(c5c6ccccc6n2c5c31)C(=O)NC4` [MIDOSTAURIN], the IC50 at 72 h in series [5] came out at 320 nM. In series [6], the 50% inhibitory concentration (IC50) was found to be 4 nM.

With `CN1CCN(Cc2ccc(NC(=O)c3n[nH]cc3Nc3ccncn3)cc2)CC1`, the IC50 in series [1] is 7.29 nM; in series [2], 23 nM; in [3] it was 14.3 nM.

For `CC(C)(C)c1cc(NC(=O)Nc2ccc(-c3cn4c(n3)sc3cc(OCCN5CCOCC5)ccc34)cc2)no1` [QUIZARTINIB], the 50% inhibitory concentration (IC50) in [7] amounted to 251 nM; in series [8] it was 771 nM; in series [9] it was 1260 nM; in series [10], 291 nM; in [4], 5.3 nM; in [11], 15.2 nM. The concentration for half-maximal inhibition (IC50) in series [12] came to 201 nM; in series [13], 1 nM; in [14] it was 93 nM; in series [6] it was 100 nM. For the same compound, the IC50 at 72 h in series [5] was more than 10000 nM.

In the case of `O=C(Nc1ccc(N2CCNCC2)cc1)c1n[nH]cc1Nc1cc(OC2CCCCCC2)ncn1`, in [1], the IC50 amounted to 28.8 nM. The figures for the Activity in series [15] and in series [16] were 54.6% and 58.1%, respectively.

`Cc1nc(Nc2c[nH]nc2C(=O)Nc2ccc(N3CCNCC3)cc2)cc(Oc2ccccc2)n1`: the IC50 in series [1] came out at 11.2 nM. For the same compound, the Activity in series [15] was 82.3%; in series [16], 88.8%.

`Cc1cnc(Nc2c[nH]nc2C(=O)Nc2ccc(N3CCNCC3)cc2)nc1Oc1ccccc1`: the Activity came to 83% in series [17], 88.6% in [15] and 88.4% in [16].

For the compound `O=C(Nc1ccc(N2CCNCC2)cc1)c1n[nH]cc1Nc1cc(C2CCCCCC2)ncn1`, the IC50 in series [1] stood at 28.9 nM. Besides, the Activity was 84.8% in series [15] and 94.3% in series [16].

Regarding `O=C(Nc1ccc(N2CCNCC2)cc1)c1n[nH]cc1Nc1cc(OCC2CCCC2)ncn1`, the IC50 in series [1] is 11.3 nM; in series [4] it was 90 nM. Further, the Activity was 51% in series [15] and 51.3% in [16].

Turning to `O=C(Nc1ccc(N2CCNCC2)cc1)c1n[nH]cc1Nc1cc(NC2CCCC2)ncn1`, the IC50 was 21.2 nM in [1] and 100 nM in series [4]. For the same compound, the Activity in [15] amounted to 69.5%; in series [16], 72.9%.

For the compound `Cc1cc(Oc2ccccc2)nc(Nc2c[nH]nc2C(=O)Nc2ccc(N3CCNCC3)cc2)n1`, the Activity is 71.7% in series [17], 78.3% in series [15] and 91.5% in series [16].

As for `O=C(Nc1ccc(N2CCNCC2)cc1)c1n[nH]cc1Nc1cc(C2CCCC2)ncn1`, the IC50 in series [1] was 15.4 nM; in series [4], 100 nM. Moreover, the Activity was 79.3% in [15] and 86.3% in series [16].

With `O=C(Nc1ccc(N2CCNCC2)cc1)c1n[nH]cc1Nc1cc(-c2ccoc2)ncn1`, in [1], the IC50 was determined as 41.3 nM. Also, the figures for the Activity in series [15] and in series [16] were 83.5% and 87.5%, respectively.

Regarding `O=C(Nc1ccc(N2CCOCC2)cc1)c1n[nH]cc1Nc1cc(C2CCCC2)ncn1`, in series [1], the IC50 is 58.3 nM. Besides, the Activity in series [15] was found to be 83.3%; in series [16], 93.3%.

With `O=C(Nc1ccc(N2CCNCC2)cc1)c1n[nH]cc1Nc1cc(C2=CCOCC2)ncn1`, the IC50 in series [1] was found to be 25.1 nM. For the same compound, the Activity was 76.5% in series [15] and 86.4% in series [16].

For `O=C(Nc1ccc(N2CCNCC2)cc1)c1n[nH]cc1Nc1cc(OC2CCCC2)ncn1`, the IC50 in [1] came to 7.84 nM; in series [2], 135 nM; in series [3], 158 nM; in series [4], 110 nM.

Regarding `CN1CCN(Cc2ccc(NC(=O)c3n[nH]cc3Nc3cc(C4CCCC4)ncn3)cc2)CC1`, the 50% inhibitory concentration (IC50) is 19.4 nM in series [1] and 200 nM in series [4]. For the same compound, the Activity worked out at 78.8% in [15] and 88.9% in series [16].

For the compound `CN1CCN(Cc2ccc(NC(=O)c3n[nH]cc3Nc3ncnc4[nH]ccc34)cc2)CC1`, the IC50 in series [8] stood at 770 nM; in series [9], 126 nM; in series [10], 795 nM; in series [4], 7 nM; in [11] it was 5.4 nM; in series [13] it was 38 nM. The IC50 in series [14] was determined as 8 nM; in series [18], 56 nM; in series [19], 73 nM; in [6], 39 nM. For the same compound, the IC50 at 72 h in series [5] came out at 155 nM. Also, at 50 mg/kg the inhibition in vivo in series [20] was 94.6%. Besides, the Activity result in series [21] and in series [22] was “Toxic” each time.

With `O=C(Nc1ccc(N2CCNCC2)cc1)c1n[nH]cc1Nc1cc(-c2ccccc2)ncn1`, the IC50 in series [1] amounted to 45.2 nM. Besides, the Activity in [15] stood at 89.3%; in [16] it was 101%.

Take `O=C(Nc1ccc(CN2CCOCC2)cc1)c1n[nH]cc1Nc1cc(C2CCCC2)ncn1`: the IC50 in [1] came out at 29.7 nM; in series [4], 210 nM. Moreover, the Activity in series [15] was found to be 71.4%; in series [16] it was 92.6%.

Turning to `O=C(Nc1ccc(N2CCNCC2)cc1)c1n[nH]cc1Nc1cc(OC2CCCCC2)ncn1`, the IC50 worked out at 19.2 nM in series [1] and 130 nM in series [4]. Further, the Activity in series [15] worked out at 53.1%; in [16], 58.4%.
